Here are results for five compounds from patent US8741967B2, “Use of unsaturated sphingosine compounds as chemotherapeutic agents for the treatment of cancer” (Children's Hospital & Research Center at Oakland, priority 2007, dated 2014).

Data set [1] concerns the target T1, murine Sphingosine Kinase 1 (SK1) (Mus musculus, UniProt Q8CI15).
T1 construct: expressed in transfected cells; host or cells: HEK293
Briefly: Phosphorylation by SK1 in extracts of HEK293 cells overexpressing SK1 (HPLC). The format is biochemical. Particulars: cell extracts preincubated for 10 minutes. The method, then: The formed phosphorylated sphingoid base products were measured by HPLC.
In order to test if preincubation with C14-So or C14Δ4:6Sd has an inhibitory effect on the ability of the SK enzyme to phosphorylate the C17-So compound, cell extracts were preincubated for 10 minutes with either C14-So or C14Δ4:6Sd followed by C17-So.

Data set [2] deals with HT29 cells. The data set can be described thus: Uptake and metabolism in HT29 colon cancer cells (LC-MS). It counts as in vitro ADME, human. Particulars: HT29, 10 μM; for clearance / metabolism in cells after lipid removal: then incubated without lipids for up to 6 hours. As to the method:
In this example, the uptake and metabolism of C14 sphingadienes was compared with that of synthetic C17 sphingosine (as a substitute for endogenous C18 sphingosine which is already present in cells) and C14 sphingosine (to assess the importance of the second double bond) by HT29 colon cancer cells. Toward that end, cells were incubated with 10 μM sphingadiene in serum-free media, followed by cell harvest at various time points, lipid extraction and analysis by mass spectrometry of SD, SD-phosphate, C14 sphingosine and corresponding S1Ps.
HT29 cells were incubated for 0.25 hours, 0.5 hours and 1 hour in media containing 10 μM C14-So (Δ4) (sphingosine) or C14Δ4:6Sd (see FIG. 9A). HT29 cells were incubated for 1 hour in media containing 10 μM C14-So or C14Δ4:6Sd. Media was then removed and cells were incubated without lipids for 1, 3 and 6 hours (FIG. 9B). At each time point, cells were harvested, lipids were extracted and the cellular contents of C14-So or C14Δ4:6Sd and the corresponding phosphorylated compounds were analyzed by LC-MS.

The target of data set [3] is T2, human Sphingosine-1-Phosphate Lyase (SPL) (Homo sapiens, UniProt O95470).
T2 construct: expressed in transfected cells; host or cells: HEK 293
T2 sequence (O95470 1-568): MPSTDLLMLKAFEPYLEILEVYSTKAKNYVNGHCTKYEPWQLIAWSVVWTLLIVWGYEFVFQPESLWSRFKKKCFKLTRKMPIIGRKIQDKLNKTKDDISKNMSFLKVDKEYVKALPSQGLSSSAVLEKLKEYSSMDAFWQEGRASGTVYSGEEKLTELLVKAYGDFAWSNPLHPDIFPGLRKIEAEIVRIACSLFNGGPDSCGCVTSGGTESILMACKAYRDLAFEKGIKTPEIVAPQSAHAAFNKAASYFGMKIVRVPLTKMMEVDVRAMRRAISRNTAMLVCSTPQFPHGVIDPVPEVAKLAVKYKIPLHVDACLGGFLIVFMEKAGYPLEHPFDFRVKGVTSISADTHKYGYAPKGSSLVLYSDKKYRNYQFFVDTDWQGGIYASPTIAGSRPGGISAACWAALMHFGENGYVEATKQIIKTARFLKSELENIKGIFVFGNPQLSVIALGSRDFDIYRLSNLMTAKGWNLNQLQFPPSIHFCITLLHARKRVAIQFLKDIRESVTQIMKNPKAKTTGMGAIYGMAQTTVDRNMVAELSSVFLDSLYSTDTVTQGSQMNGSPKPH
Briefly: Cleavage by SPL in HEK 293 cells overexpressing SPL. The format is biochemical.

For data set [4], the system named is HT29 cells. Briefly: Viability of HT29 colon cancer cells. The format is cell-based, human. Particulars: HT29, various concentrations, 24 hours. The method, then: The human colon cancer cell lines, HT29, SW480, HCT116 and DLD1 were treated with 10 μM C14Δ4:6Sd (also referred to herein as 2-aminotetradeca-4,6-diene-1,3-diol) and viability was determined at 24 hours.
HT29 cells were then incubated with various sphingadiene compounds and viability was determined at 24 hours.
HT29 cells were incubated with various concentrations of C14Δ4:6Sd and viability was determined at 24 hours or incubated with 10 μM C14Δ4:6Sd and viability was determined at various time points.
In a further experiment, HT29 cells were treated with the PI3K inhibitor wortmannin and various concentrations of C14Δ4:6Sd and viability was determined at 24 hours by MTT assay. The results confirmed synergistic inhibition of […] by C14Δ4:6Sd and wortmannin (see FIG. 8C).

The next data set has as its system Akt. The data set can be described thus: Akt phosphorylation by western blotting in HT29 cells. Particulars: HT29, 10 μM, 0.5 to 24 hours. It counts as cell-based, human. The method, then: (§1) To address the possibility that sphingadienes might promote cell death by inhibiting the PI3K/AKT pathway, the effect of sphingadienes on phosphorylation of AKT, PTEN, and the AKT substrate 4EBP, which is a regulator of protein translation, was evaluated using immunoblotting of whole cell extracts.
(§2) HT29 cells were incubated with 10 μM C14Δ4:6Sd for 0.5, 1, 3, 6 and 24 hours and the level of Akt and 4EBP phosphorylation was evaluated at each time point by western blotting. […] The ratios of phosphorylated Akt to total Akt and of phosphorylated 4EBP to total 4EBP, were quantified by densitometry using ImageJ software (ImageJ is a public domain Java image processing program inspired by NIH Image; available at rsbweb.nih.gov/ij/index.html) and are shown in FIG. 7A and FIG. 7B, respectively.
(§3) In an additional experiment, HT29 cells were treated for various time periods with 10 μM C14Δ4:6Sd or C18Δ4:8Sd and the level of phosphorylation of Akt and 4EBP was evaluated by western blotting at 0.5, 1.0 and 3.0 hours. The results confirmed that sphingadienes inhibited phosphorylation of Akt and 4EBP, even at 0.5 hours of exposure, thus inhibiting signaling through Akt and 4EBP.
(In general: In western blotting, separated proteins are transferred to a membrane and probed.)

The next data set deals with 4EBP. Briefly: 4EBP phosphorylation by western blotting in HT29 cells. The format is cell-based, human. Particulars: HT29, 10 μM, 0.5 to 24 hours. The method, then: as §1, §2, §3

“Also recorded” adds a separate entry of the source.

T1 sequence (Q8CI15 whole entry): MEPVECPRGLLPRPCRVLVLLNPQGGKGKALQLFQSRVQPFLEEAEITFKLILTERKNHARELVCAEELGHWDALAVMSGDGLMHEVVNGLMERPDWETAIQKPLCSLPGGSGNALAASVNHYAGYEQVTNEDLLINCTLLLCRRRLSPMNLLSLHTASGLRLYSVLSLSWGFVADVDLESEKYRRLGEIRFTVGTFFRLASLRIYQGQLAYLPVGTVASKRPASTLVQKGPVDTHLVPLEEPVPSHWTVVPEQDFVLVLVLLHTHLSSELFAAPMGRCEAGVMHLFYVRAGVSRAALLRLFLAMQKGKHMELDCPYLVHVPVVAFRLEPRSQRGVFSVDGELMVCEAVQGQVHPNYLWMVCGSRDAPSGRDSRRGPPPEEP

As for `CCCCCCCCCCCCC/C=C/[C@@H](O)[C@@H](N)CO` [C14-So, reference compound], the “inhibitory effect on phosphorylation of C17-So by SK” value in data set [1] is “no inhibitory effect was observed”. The “conversion to the phosphorylated compound in intact cells” value in the data set on HT29 cells [2] (LC-MS) is on record as “efficiently phosphorylated”. In the data set with HT29 cells [2] (not shown), the “uptake rate compared with long chain sphingosine” value was “faster”. For the same compound, the “uptake rate by cells” value in the data set with HT29 cells [2] (serum-free media) is “taken up at equal rates”. Further, the “clearance / metabolism in cells after lipid removal” value in the data set on HT29 cells [2] is listed as “completely metabolized”; with HT29 cells [2] (listed as C14 sphingosine), “cleared from the cells in hours; also recorded: rapidly metabolized”.

Turning to `CCCCCCCCCC=CC(O)C(N)COP(=O)(O)O` (stereo not drawn) [C14So-1P], the “processing of C17So-1P following preincubation” value in data set [3] is reported as “No significant difference”.

`CCCCCC=CCCC=CC(O)C(N)CO` (stereo not drawn) [C14Δ4:8Sd]: the “cytotoxicity (viability)” value with HT29 cells [4] was “cytotoxic”.

For `CCCCCCCCCCC/C=C/C=C/C(O)C(N)CO` (stereo not drawn) [C18Δ4:6Sd], the “cytotoxicity (viability)” value in the data set on HT29 cells [4] is recorded as “cytotoxic”.

With `CCCCCCCCC/C=C/CC/C=C/C(O)C(N)CO` (stereo not drawn) [C18Δ4:8Sd], the “cytotoxicity (viability)” value in the data set with HT29 cells [4] was “cytotoxic”. Besides, the “phosphorylation of Akt” value in the data set on Akt is listed as “inhibited”. The “phosphorylation of 4EBP” value in the data set with 4EBP is “inhibited”.
